Target: T1, GAL4-ER (LBD)-VP16 fusion protein (Homo sapiens, UniProt P03372, G400V)
T1 construct: was used to replace the ER of 281-595; expressed in transfected cells; host or cells: 293T cells (A1, A2, A3, A5)
T1 sequence (P03372 281-595 G400V): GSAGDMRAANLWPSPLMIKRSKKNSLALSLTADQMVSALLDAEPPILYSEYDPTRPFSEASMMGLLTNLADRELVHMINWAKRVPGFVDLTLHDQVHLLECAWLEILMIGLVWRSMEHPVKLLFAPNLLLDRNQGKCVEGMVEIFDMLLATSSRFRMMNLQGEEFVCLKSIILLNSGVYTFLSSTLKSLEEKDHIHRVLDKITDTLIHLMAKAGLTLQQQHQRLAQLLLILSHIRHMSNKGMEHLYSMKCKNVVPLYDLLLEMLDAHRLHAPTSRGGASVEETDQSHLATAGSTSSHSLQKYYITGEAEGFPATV
Test: ER-ligand induced transactivation system (GAL4-ER(LBD)-VP16 activator + GAL4-E4-firefly luciferase reporter) in transiently co-transfected 293T cells
Assay type: cell-based
Source text: Cell Transfection and Luciferase Assay. […] Volumes of Lipofectamine were as recommended by the manufacturer.

Row | fold luciferase signal in comparison to carrier control (1 μM ligand) [fold] | SMILES | transactivation signal relative to carrier control (in words) (1 μM)
1 | – | N.N.[Cl][Pt][Cl] [non-ligand anticancer drug, cisplatinum] | not significantly different from the cells exposed to carrier control
2 | 300±80 | C[C@]12CC[C@@H]3c4ccc(O)cc4C[C@@H](CCCCCCCCC[S+]([O-])CCCC(F)(F)C(F)(F)F)[C@H]3[C@@H]1CC[C@@H]2O (some centres unmarked) [ICI] | –
